Target: T1, CD81 antigen (Homo sapiens, UniProt P60033)
T1 sequence (P60033 whole entry): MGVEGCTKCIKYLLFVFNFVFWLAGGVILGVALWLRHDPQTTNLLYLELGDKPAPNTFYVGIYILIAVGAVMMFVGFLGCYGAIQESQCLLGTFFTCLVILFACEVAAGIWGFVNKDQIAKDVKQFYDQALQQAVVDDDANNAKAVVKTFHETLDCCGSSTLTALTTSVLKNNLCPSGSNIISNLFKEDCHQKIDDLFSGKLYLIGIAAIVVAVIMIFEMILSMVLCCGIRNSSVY
Assay: Binding affinity to CD81 (unknown origin) assessed as […] rate constant by surface plasmon resonance assay
Settings: read-out: kon (M-1-s-1)

Row | kon [M⁻¹ s⁻¹] | SMILES
1 | 2.02e+06 | CC(=O)[C@@H]1C[C@H](C(=O)O)[C@@]1(C)CC/C=C(\C)C(=O)O
2 | 2.53e+08 | C/C(=C\CC[C@]1(C)[C@@H](C(=O)O)C[C@H]1[C@](C)(O)C(=O)O)C(=O)O

From BindingDB's records for doi:10.1016/j.bmc.2018.12.038 (Peking University, 2019)
